According to patent US11524945B2, “Compounds for treating ILK-mediated diseases” (The Cleveland Clinic Foundation, priority 2018, dated 2022):
≈ marks a conversion by molar mass, not a printed value. Entries after “also recorded” stand apart in the source; their conditions may differ. Read-outs that look alike come from different tables or passages of the source.

How the values were obtained:
purified EGFR = purified EGFR (Homo sapiens (Human), UniProt P00533); experiment: kinase assay using purified EGFR; format: biochemical
Sequence of purified EGFR (P00533 25-1210): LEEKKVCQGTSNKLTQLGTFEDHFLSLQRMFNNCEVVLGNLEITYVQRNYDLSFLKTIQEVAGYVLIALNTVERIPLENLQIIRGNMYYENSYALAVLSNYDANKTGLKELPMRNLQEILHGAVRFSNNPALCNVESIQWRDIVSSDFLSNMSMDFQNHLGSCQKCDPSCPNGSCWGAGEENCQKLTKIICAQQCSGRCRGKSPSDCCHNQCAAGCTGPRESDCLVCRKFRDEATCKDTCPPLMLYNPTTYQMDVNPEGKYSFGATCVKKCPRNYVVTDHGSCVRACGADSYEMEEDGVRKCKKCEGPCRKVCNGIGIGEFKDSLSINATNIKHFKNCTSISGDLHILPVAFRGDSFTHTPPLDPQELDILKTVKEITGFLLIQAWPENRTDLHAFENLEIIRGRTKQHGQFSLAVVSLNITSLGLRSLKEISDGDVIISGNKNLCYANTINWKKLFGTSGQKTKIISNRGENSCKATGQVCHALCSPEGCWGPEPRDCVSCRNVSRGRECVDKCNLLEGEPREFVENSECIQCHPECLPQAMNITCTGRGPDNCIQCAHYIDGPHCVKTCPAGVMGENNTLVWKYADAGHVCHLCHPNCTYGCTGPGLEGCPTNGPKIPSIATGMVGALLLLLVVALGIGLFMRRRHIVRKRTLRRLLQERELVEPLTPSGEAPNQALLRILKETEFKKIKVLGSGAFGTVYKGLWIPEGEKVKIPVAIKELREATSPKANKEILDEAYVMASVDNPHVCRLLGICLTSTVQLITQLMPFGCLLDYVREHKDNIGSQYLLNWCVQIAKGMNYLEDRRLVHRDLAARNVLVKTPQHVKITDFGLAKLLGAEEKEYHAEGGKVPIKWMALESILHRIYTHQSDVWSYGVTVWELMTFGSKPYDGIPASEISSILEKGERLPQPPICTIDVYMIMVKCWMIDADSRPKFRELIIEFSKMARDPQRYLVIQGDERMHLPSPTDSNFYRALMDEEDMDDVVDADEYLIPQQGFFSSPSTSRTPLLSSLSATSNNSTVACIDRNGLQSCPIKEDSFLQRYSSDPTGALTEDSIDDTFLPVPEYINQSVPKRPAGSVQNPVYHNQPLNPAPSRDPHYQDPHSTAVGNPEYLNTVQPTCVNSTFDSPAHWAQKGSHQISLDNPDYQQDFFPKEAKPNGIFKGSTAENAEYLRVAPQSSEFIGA

kinases = experiment: proteomic off target analysis vs known kinase inhibitors; settings: FIG. 3, against FDA-approved kinase inhibitors
Excerpt: Higher selectivity score means stronger off target effects.
To elucidate definitively how Csbl-1 specifically binds to ILK, we determined the crystal structure of Csbl-1/ILK complex. […] Thus our structure provides a hypothetical atomic basis for understanding why Csbl-1 binds selectively to ILK but unfavorably to EGFR (Table 1).

Stability in SIF = format: physicochemical
CYP 2C8 = CYP 2C8 (Homo sapiens (Human), UniProt P10632); experiment: CYP inhibition in human liver microsomes, 2C8; format: in vitro ADME
Sequence of CYP 2C8 (P10632 whole entry): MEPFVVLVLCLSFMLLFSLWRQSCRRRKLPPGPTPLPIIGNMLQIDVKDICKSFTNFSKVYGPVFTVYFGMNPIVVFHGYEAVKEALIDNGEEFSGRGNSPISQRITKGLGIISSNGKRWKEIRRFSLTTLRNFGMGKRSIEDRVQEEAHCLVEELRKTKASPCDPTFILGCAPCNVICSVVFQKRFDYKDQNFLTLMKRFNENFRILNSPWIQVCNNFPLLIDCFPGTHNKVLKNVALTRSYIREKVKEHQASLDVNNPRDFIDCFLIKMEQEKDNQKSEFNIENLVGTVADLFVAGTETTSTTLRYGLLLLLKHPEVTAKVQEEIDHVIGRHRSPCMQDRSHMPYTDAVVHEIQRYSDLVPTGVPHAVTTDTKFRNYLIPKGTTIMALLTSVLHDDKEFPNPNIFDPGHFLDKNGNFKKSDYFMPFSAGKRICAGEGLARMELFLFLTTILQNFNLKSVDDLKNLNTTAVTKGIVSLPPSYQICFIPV

CYP 2C19 = CYP 2C19 (Homo sapiens (Human), UniProt P33261); experiment: CYP inhibition in human liver microsomes, 2C19; format: in vitro ADME
Sequence of CYP 2C19 (P33261 whole entry): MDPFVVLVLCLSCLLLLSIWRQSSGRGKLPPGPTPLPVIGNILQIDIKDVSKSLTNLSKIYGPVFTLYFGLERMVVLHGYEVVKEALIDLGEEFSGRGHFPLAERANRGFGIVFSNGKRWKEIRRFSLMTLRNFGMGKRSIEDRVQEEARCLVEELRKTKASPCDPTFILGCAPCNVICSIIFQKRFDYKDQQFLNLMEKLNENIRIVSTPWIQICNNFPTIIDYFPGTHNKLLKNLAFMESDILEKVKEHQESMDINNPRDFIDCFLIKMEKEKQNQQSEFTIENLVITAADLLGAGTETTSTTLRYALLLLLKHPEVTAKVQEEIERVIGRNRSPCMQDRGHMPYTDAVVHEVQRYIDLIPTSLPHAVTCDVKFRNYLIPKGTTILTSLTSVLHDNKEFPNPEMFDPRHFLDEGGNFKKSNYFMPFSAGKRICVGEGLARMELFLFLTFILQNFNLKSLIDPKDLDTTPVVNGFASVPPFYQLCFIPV

CYP 2D6 = CYP 2D6 (Homo sapiens (Human), UniProt P10635); experiment: biochemical; format: in vitro ADME; settings: Human Liver Microsomes
Sequence of CYP 2D6 (P10635 whole entry): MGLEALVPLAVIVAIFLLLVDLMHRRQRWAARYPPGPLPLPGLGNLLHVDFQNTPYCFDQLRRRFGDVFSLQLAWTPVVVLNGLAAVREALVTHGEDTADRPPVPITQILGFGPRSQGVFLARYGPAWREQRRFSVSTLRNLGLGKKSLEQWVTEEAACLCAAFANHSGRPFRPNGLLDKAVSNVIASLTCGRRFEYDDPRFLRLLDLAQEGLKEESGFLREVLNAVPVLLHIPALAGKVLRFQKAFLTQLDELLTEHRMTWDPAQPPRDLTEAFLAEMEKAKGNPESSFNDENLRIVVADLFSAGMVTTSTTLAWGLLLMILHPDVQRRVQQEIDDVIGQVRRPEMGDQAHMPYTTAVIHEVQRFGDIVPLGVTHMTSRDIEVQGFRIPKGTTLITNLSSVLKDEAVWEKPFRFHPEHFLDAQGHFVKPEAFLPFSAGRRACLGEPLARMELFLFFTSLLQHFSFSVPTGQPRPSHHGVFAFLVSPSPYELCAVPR

CYP 3A4-M = CYP 3A4-M (Homo sapiens (Human), UniProt P08684); experiment: CYP inhibition in human liver microsomes, 3A4-M; format: in vitro ADME
Sequence of CYP 3A4-M (P08684 whole entry): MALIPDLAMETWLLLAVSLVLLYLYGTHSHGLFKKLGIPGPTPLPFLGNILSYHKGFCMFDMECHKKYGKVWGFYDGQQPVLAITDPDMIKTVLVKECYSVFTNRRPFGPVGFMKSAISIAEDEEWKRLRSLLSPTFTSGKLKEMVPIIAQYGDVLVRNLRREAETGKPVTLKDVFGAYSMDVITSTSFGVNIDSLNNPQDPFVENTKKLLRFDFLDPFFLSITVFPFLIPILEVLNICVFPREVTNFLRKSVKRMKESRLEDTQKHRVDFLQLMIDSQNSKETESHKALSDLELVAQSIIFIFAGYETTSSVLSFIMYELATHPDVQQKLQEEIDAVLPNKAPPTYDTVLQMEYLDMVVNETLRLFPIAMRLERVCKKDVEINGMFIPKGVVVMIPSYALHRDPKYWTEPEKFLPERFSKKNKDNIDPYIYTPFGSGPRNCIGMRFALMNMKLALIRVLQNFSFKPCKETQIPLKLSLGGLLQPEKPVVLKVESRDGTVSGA

[1] = Metabolic stability in human liver microsomes; format: in vitro ADME; settings: for Remaining Percentage (%): Human
[2] = Metabolic stability in rat liver microsomes; format: in vitro ADME; settings: for Remaining Percentage (%): Rat
[3] = Metabolic stability in mouse liver microsomes; format: in vitro ADME; settings: for Remaining Percentage (%): Mouse
[4] = Log D in 1-Octanol/PBS pH 7.4; format: physicochemical
HepG2 cells = experiment: Mitochondrial toxicity in HepG2 cells; format: cell-based; settings: for IC50: Homo sapiens, HepG2 cells
[5] = Protein binding in human plasma; format: in vitro ADME
[6] = Protein binding in rat plasma; format: in vitro ADME
[7] = Protein binding in mouse plasma; format: in vitro ADME
[8] = Stability in human plasma; format: in vitro ADME
Stability in rat plasma = format: in vitro ADME
[9] = Solubility in PBS at pH 7.4; format: physicochemical; settings: aqueous buffer
MDA-MB-231 cells = experiment: Proliferation of triple negative breast cancer MDA-MB-231 cells; format: cell-based
Method: Cells were seeded at 20,000 cells/ml in 12 well plates in complete media. On day 3, the compounds were added at final 2 μM and the cells were counted every 3 days. […] Cells were seeded at 10,000 cells/ml in 12 well plates in complete media. The compounds were added at final 2 μM on day 2 and the cells were counted every 2 days.

[10] = Oral toxicity in normal mice; format: in vivo; settings: 25 to 510 mg/kg every day for two weeks, CMC/TWEEN 80
[11] = tested on: Xenograft TNBC tumors (MDA-MB231); experiment: TNBC xenograft model (MDA-MB231); format: in vivo, mice; settings: 100 mg/kg five times/week
Method: (§1) The next step was to evaluate the effect of Csbl-1 in mice bearing TNBC tumors. Given the fact that higher ILK expression level is correlated with poor outcome and reduced survival for TNBC patients (FIG. 6) and the above TNBC cell-based data, we decided to test whether Csbl-1 would be effective in suppressing the TNBC tumors in mice. […] Xenograft TNBC tumors were generated using MDA-MB231 on 8 mice. […] when the tumors were ˜3 mm, 4 mice were fed with Csbl-1 at 100 mg/kg five times/week and the other 4 mice (control, no drug) had no Csbl-1 treatment. […] We also examined the Csbl-1 effect on the mouse models with human derived patient TNBC tumor (PDX).

[12] = tested on: human derived patient TNBC tumor (PDX); experiment: TNBC PDX mice; format: in vivo; settings: 200 mg/kg orally five times/week, in olive oil; day 27; listed as Csbl-1
Method: FIG. 8, panels A-C, show the effect of Csbl-1 on TNBC PDX mice. Csbl-1 was dissolved in olive oil. Five mice with TNBC were treated orally with Csbl-1 at 200 mg/kg five times/week vs 4 control mice without the treatment.
as §1

C#Cc1cc(Nc2ncnc3cc(OCCOC)ccc23)cc(OCCOCC)c1 [Compound 1]
IC50 (purified EGFR): 77.2 µM | off-target effect to kinases (kinases): minimal off-target effect | Remaining Percentage (%) (Stability in SIF; 0 min): 100.00% | Remaining Percentage (%) (Stability in SIF; 30 min): 104.86% | Remaining Percentage (%) (Stability in SIF; 60 min): 109.34% | Remaining Percentage (%) (Stability in SIF; 120 min): 105.85% | Remaining Percentage (%) (Stability in SIF; 180 min): 108.93% | Remaining Percentage (%) (Stability in SIF; 240 min): 109.26% | IC50 (CYP 2C8): 3.24 µM | IC50 (CYP 2C19): 10.8 µM | IC50 (CYP 2D6): 27.6 µM | IC50 (CYP 3A4-M): 43.8 µM | half-life ([1]; Human Liver Microsomes): 34.8 min | microsomal CLint ([1]; Human Liver Microsomes, read-out: CLint (μL/min/mg protein)): 39.8 µL/min/mg | CLint scaled ([1]; Human Liver Microsomes, read-out: Scaled-up CLint): 49.9 mL/min/kg | Remaining Percentage (%) ([1]; With NADPH, 0 min): 100.00% | Remaining Percentage (%) ([1]; With NADPH, 15 min): 70.61% | Remaining Percentage (%) ([1]; With NADPH, 30 min): 51.77% | Remaining Percentage (%) ([1]; With NADPH, 45 min): 38.83% | Remaining Percentage (%) ([1]; With NADPH, 60 min): 30.40% | Remaining Percentage (%) ([1]; Without NADPH, 0 min): 100.00% | Remaining Percentage (%) ([1]; Without NADPH, 15 min): 98.20% | Remaining Percentage (%) ([1]; Without NADPH, 30 min): 92.81% | Remaining Percentage (%) ([1]; Without NADPH, 45 min): 89.22% | Remaining Percentage (%) ([1]; Without NADPH, 60 min): 103.59% | half-life ([2]; Rat liver microsomes): 16 min | microsomal CLint ([2]; Rat liver microsomes, read-out: CLint (μL/min/mg protein)): 86.6 µL/min/mg | CLint scaled ([2]; Rat liver microsomes, read-out: Scaled-up CLint): 155 mL/min/kg | Remaining Percentage (%) ([2]; With NADPH, 0 min): 100.00% | Remaining Percentage (%) ([2]; With NADPH, 15 min): 45.00% | Remaining Percentage (%) ([2]; With NADPH, 30 min): 21.08% | Remaining Percentage (%) ([2]; With NADPH, 45 min): 11.69% | Remaining Percentage (%) ([2]; With NADPH, 60 min): 7.65% | Remaining Percentage (%) ([2]; Without NADPH, 0 min): 100.00% | Remaining Percentage (%) ([2]; Without NADPH, 15 min): 95.03% | Remaining Percentage (%) ([2]; Without NADPH, 30 min): 90.68% | Remaining Percentage (%) ([2]; Without NADPH, 45 min): 91.30% | Remaining Percentage (%) ([2]; Without NADPH, 60 min): 102.48% | half-life ([3]; Mouse liver microsomes): 35.4 min | microsomal CLint ([3]; Mouse liver microsomes, read-out: CLint (μL/min/mg protein)): 39.2 µL/min/mg | CLint scaled ([3]; Mouse liver microsomes, read-out: Scaled-up CLint): 172 mL/min/kg | Remaining Percentage (%) ([3]; With NADPH, 0 min): 100.00% | Remaining Percentage (%) ([3]; With NADPH, 15 min): 72.40% | Remaining Percentage (%) ([3]; With NADPH, 30 min): 51.67% | Remaining Percentage (%) ([3]; With NADPH, 45 min): 37.39% | Remaining Percentage (%) ([3]; With NADPH, 60 min): 32.04% | Remaining Percentage (%) ([3]; Without NADPH, 0 min): 100.00% | Remaining Percentage (%) ([3]; Without NADPH, 15 min): 93.90% | Remaining Percentage (%) ([3]; Without NADPH, 30 min): 93.90% | Remaining Percentage (%) ([3]; Without NADPH, 45 min): 91.46% | Remaining Percentage (%) ([3]; Without NADPH, 60 min): 94.51% | logD [4]: 3.61 | IC50 (HepG2 cells; Galactose, read-out: IC50 (μM)_Galactose): > 150 µM | IC50 (HepG2 cells; Glucose, read-out: IC50 (μM)_Glucose): > 150 µM | Compound precipitation (HepG2 cells; at 50 and 150 μM in mitochondrial toxicity assay): * Compound precipitation observed for Compound 1 at 50 and 150 μM. | recovery [5]: 98.8% | fraction unbound ([5]; read-out: % Bound (converted)): 0.0303 | recovery [6]: 93.4% | fraction unbound ([6]; read-out: % Bound (converted)): 0.0083 | recovery [7]: 110% | fraction unbound ([7]; read-out: % Bound): 0.01 | Remaining Percentage (%) ([8]; 0 min): 100.00% | Remaining Percentage (%) ([8]; 15 min): 93.79% | Remaining Percentage (%) ([8]; 30 min): 93.79% | Remaining Percentage (%) ([8]; 45 min): 90.52% | Remaining Percentage (%) ([8]; 60 min): 90.20% | Remaining Percentage (%) ([8]; 120 min): 88.56% | Remaining Percentage (%) (Stability in rat plasma; 0 min): 100.00% | Remaining Percentage (%) (Stability in rat plasma; 15 min): 92.93% | Remaining Percentage (%) (Stability in rat plasma; 30 min): 94.35% | Remaining Percentage (%) (Stability in rat plasma; 45 min): 93.29% | Remaining Percentage (%) (Stability in rat plasma; 60 min): 94.70% | Remaining Percentage (%) (Stability in rat plasma; 120 min): 91.52% | solubility [9]: 7.96 µM (≈ 3.24 µg/mL) | IC50 (MDA-MB-231 cells; Homo sapiens, MDA-MB-231, read-out: IC50 on MDA-MB-231): ~0.19 µM | effect on proliferation of MDA-MB-231 cells (MDA-MB-231 cells; compounds at final 2 μM, FIG. 5 panel B): substantially inhibited the proliferation | toxic symptoms in normal mice [10]: no toxic symptoms | weight difference vs control mice [11]: no significant weight difference | TNBC tumor growth in PDX mice [12]: effectively inhibited TNBC tumor growth; also recorded: significantly reduced
